Test results from patent US20240400620A1, “Compositions Containing Coronavirus Proteins and Epitopes” (priority 2021, published 2024).

Test system: activated CD4+ T cells from MA10-infected HLA-DRB1*0101 Ifnar1^−/− mice
Format: cell-based

Sequence | expansion of multifunctional IFNγ+/TNF+ CD4+ T cells | frequency of IFNγ-producing activated CD4+ T cells compared with unstimulated control cells
TSNFRVQPTESIVRF [S315-329] | capable of expanding | 
RWYFYYLGTGPEAGL (misc_feature - Nucleoprotein; Severe acute respiratory syndrome-related coronavirus) [N107-121] |  | increase was significant
LNTLVKQLSSNFGAI [S959-973] |  | increase was significant
VLSFELLHAPATVCG [S512-526] | capable of expanding | 
GTWLTYTGAIKLDDK (misc_feature - Nucleoprotein; Severe acute respiratory syndrome-related coronavirus) [N328-342] | capable of expanding | 
